Laboratory results as given in article PMC10747430, “^99mTc-Labeled Cyclic Peptide Targeting PD-L1 as a Novel Nuclear Imaging Probe” (Pharmaceutics, 2023).

How the values were obtained:
[1] = tested on: lesions and adenopathies with high metabolic activity; assay: [18F]FDG PET/CT imaging in a patient; type: in vivo, human; design: key: Lesions and adenopathies positive for high metabolic activity were detected with [^18F]FDG (✓)
Source text: A person (weight 60 kg; height 168 cm) diagnosed with advanced plantar malignant melanoma was enrolled in this study (Ethics Committee: Protocol No. 2023-MN02). The trial was approved based on the microdose concept and proof-of-concept studies. In addition, the ethical standards of the INCan Hospital based on the Declaration of Helsinki regarding human experimentation and the GMP certificate granted to ININ by the Mexican Ministry of Health were taken into account. The patient signed an informed consent form after receiving detailed information about the purpose of the study, which could help decide on treatment and monitor disease progression.
Table 2 provides a detailed analysis of the molecular imaging findings obtained in the [^99mTc]Tc-iPD-L1 SPECT/CT and [^18F]FDG/PET studies.

Serum protein binding = type: in vitro ADME; conditions: human serum (diluted 5x), 37 °C, size-exclusion radio-HPLC, n = 3
Description: (§1) The stability of [^99mTc]Tc-iPD-L1 and [^99mTc]Tc-WL12 was evaluated by diluting the samples in human serum (5x). The radiopharmaceuticals (n = 3) were heated at 37 °C and analyzed at 0.5, 3, and 24 h for radiochemical purity by size-exclusion radio-HPLC (ProteinPak 300SW, Waters Corporation, Milford, CT, USA).
(§2) The radioactivity from [^99mTc]Tc-iPD-L1 bound to serum proteins was 1.3 ± 0.8% at 30 min, 3.2 ± 1.3% at 3 h, and 7.6 ± 1.9% at 24 h. High radiochemical stability (>90% at 24 h) was also observed. In the case of [^99mTc]Tc-WL12, protein binding was 1.0 ± 0.4% at 30 min, 3.3 ± 0.9% at 3 h, and 6.0 ± 1.3% at 24 h, with a radiochemical purity of >90% at 24 h. Therefore, there was no significant difference […] in protein binding and serum stability between the radiotracers.

[2] = target: T1, human recombinant PD-L1 protein (Homo sapiens, UniProt Q9NZQ7); assay: Radio-SDS-PAGE molecular recognition by PD-L1 protein; type: binding; conditions: radiopeptide (1 mg/mL) incubated with PD-L1 (200 µg/mL) 30 min at 37 °C; 15% SDS-PAGE, radio-TLC scan
T1 construct: purchased FineTest P6857
T1 sequence (Q9NZQ7 19-290): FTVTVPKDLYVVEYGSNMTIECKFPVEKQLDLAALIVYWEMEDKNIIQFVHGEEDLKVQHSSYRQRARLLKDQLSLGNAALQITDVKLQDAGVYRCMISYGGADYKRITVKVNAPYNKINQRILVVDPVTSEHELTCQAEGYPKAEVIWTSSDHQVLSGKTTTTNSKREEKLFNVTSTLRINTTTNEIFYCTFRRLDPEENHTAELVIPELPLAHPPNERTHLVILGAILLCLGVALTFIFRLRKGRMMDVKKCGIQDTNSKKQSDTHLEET
Description: SDS-PAGE gel electrophoresis was performed. Radioactivity distribution was determined using a radio-TLC scanner (Mini-Gita, 60–150 keV, BGO-Crystal, window 25 × 2 mm, thickness 5 mm, resolution optimized for Tc-99m; RayTest, Munich, Germany) to detect [^99mTc]Tc-iPD-L1 and [^99mTc]Tc-WL12 binding to PD-L1 protein.
Briefly, ^99mTc-labeled WL12 and iPD-L1 solutions (100 µL) (1 mg/mL peptide) were incubated with human recombinant PD-L1 protein (100 µL) (200 µg/mL; FineTest; Cat: P6857) (radiopeptide-PD-L1 interaction) or human integrin αVβ3 protein (100 µL) (negative control; 200 µg/mL) (Chemicom, Merck; Burlington, MA, USA) (radiopeptide-integrin interaction) for 30 min at 37 °C, after which the samples were diluted with Laemmli sample buffer (containing 10% SDS, Tris-Cl 125 mM, pH = 6.8, 12.5% glycerol and 0.005% bromophenol blue after dye) to give final protein concentrations of 25 µg/mL. […] Finally, the radioactivity distribution on the gels was scanned using a radio-TLC detector to determine the percentage of [^99mTc]Tc-iPD-L1 or [^99mTc]Tc-WL12 radioactivity associated with proteins.
In vitro-specific recognition of [^99mTc]Tc-iPD-L1 and [^99mTc]Tc-WL12 by the PD-L1 protein was performed using a combination of radio-TLC and SDS-PAGE (radio-SDS-PAGE). […] Therefore, the radioactivity associated with free peptides is in the front of the gel plate (around 60–70 mm). […]

[3] = tested on: HCC827 lung cancer tumors; assay: Biodistribution in mice bearing HCC827 tumors; type: in vivo, mouse; conditions: mice bearing HCC827 tumors
Description: All animal procedures were performed following the Institutional Animal Care and Use Committee requirements under an approved protocol (No. 09-2018-2022) and the Ethical Regulations for the Handling of Laboratory Animals (NOM-062-ZOO-1999). Male Nu/Nu (CINVESTAV, I.PN., Mexico City, Mexico) mice, 6–8 weeks of age, were maintained in an aseptic barrier environment. Mice were inoculated by subcutaneous injection of 1 × 10^6 HCC827 cells/0.1 mL PBS into the upper back. Injection sites were monitored periodically for tumor progression. On day ten after tumor cell inoculation, animals were injected with 18.5 MBq (50 µL) of [^99mTc]Tc-iPD-L1 or 18.5 MBq (50 µL) of [^99mTc]Tc-WL12 by tail vein injection. The animals were sacrificed at 1, 3, and 24 h (n = 3). Kidneys, lungs, heart, liver, spleen, pancreas, small intestine, stomach, muscle, and blood and tumor samples were dissected. Radioactivity was determined in a sodium iodide detector. The results were stated as % injected dose/g.
After 24 h, the activity in tumors was 3.21 ± 0.45 %ID/g ([^99mTc]Tc-WL12) and 5.65 ± 0.98 %ID/g ([^99mTc]Tc-iPD-L1). […] This behavior is related to the higher lipophilicity of [^99mTc]Tc-iPD-L1 compared to [^99mTc]Tc-WL12.

Stability in human serum = type: in vitro ADME; conditions: human serum (diluted 5x), 37 °C, n = 3
Description: as §1, §2

With `OC[C@H]1OC(O)[C@H]([18F])[C@@H](O)[C@@H]1O` (some centres unmarked) [[^18F]FDG] the “[18F]FDG Uptake” value ([1]; patient with plantar malignant melanoma, PET/CT, Mediastinal adenopathies level 4R, 8 and 10L up to 12 mm) was “✓”, the “[18F]FDG Uptake” value ([1]; same patient, Adenopathies in the entire intramuscular tract of the left lower extremity up to 14 mm) was “✓” and the “[18F]FDG Uptake” value ([1]; same patient, Adenopathies of the common, internal, external, and obturator iliac chains up to 26 mm) was “✓”. For the same molecule, the “[18F]FDG Uptake” value ([1]; same patient, Left femoral adenopathies of 12 mm) was “✓”, the “[18F]FDG Uptake” value ([1]; same patient, Left inguinal adenopathies forming clusters of 29 mm) was “✓” and the “[18F]FDG Uptake” value ([1]; same patient, Left popliteal hollow adenopathies up to 20 mm) was “✓”. The “[18F]FDG Uptake” value ([1]; same patient, Left retrocrural adenopathy of 9 mm) was “✓”, the “[18F]FDG Uptake” value ([1]; same patient, Liver, poorly defined hypodense images, the largest in segment 7) was “✓” and the “[18F]FDG Uptake” value ([1]; same patient, Retroperitoneal paraaortic and intercavoaortic adenopathies of 14 mm) was “✓”. The “[18F]FDG Uptake” value ([1]; same patient, exophytic lesion in the heel region of the left foot, 67 × 35 mm) was “✓”.
In the case of `CC(C)C[C@@H]1NC(=O)[C@H](CC(C)C)NC(=O)[C@H](Cc2c[nH]c3ccccc23)NC(=O)[C@H](CO)NC(=O)[C@H](Cc2c[nH]c3ccccc23)NC(=O)[C@@H]2CCCN2C(=O)[C@H](CC(C)C)NC(=O)[C@H](Cc2c[nH]cn2)NC(=O)[C@@H]2CCCN2C(=O)[C@H](CC(N)=O)NC(=O)[C@H](C)NC(=O)[C@H](Cc2ccc(O)cc2)NC(=O)[C@H](CS)NC(=O)[C@H](CCCCNC(=O)c2ccc(NN)nc2)NC1=O` [[^99mTc]Tc-iPD-L1, metal not drawn], the “radioactivity bound to serum proteins at 30 min” value (Serum protein binding; 30 min) is reported as 1.3 ± 0.8%, the “radioactivity bound to serum proteins at 3 h” value (Serum protein binding; 3 h) is reported as 3.2 ± 1.3% and the “radioactivity bound to serum proteins at 24 h” value (Serum protein binding; 24 h) is reported as 7.6 ± 1.9%. The “radioactivity detected at the distance associated with the PD-L1 protein” value [2] was 30%, the “activity in blood, liver, and kidney compared to [99mTc]Tc-WL12” value [3] was “higher activity in blood, liver, and kidney” and the “stability in human serum” value (Stability in human serum; 30 min, 3 h and 24 h, size-exclusion radio-HPLC) was “remained stable”. For the same molecule, the remaining at 24 h (Stability in human serum; 24 h, size-exclusion radio-HPLC (ProteinPak 300SW), read-out: radiochemical stability / radiochemical purity in human serum at 24 h) was over 90%.
